The record followed here is paper PMC8808171, “Nonselective TRPC channel inhibition and suppression of aminoglycoside-induced premature termination codon readthrough by the small molecule AC1903” (The Journal of Biological Chemistry, 2022).

Entries after “also recorded” stand apart in the source; their conditions may differ.

In the assay the target is T1, hPiezo1 (Homo sapiens, UniProt Q92508).
T1 construct: expressed in transfected cells; host or cells: HEK T-REx (tetracycline-induced)
Briefly: [Ca2+]i recordings (Fura-2), Piezo1 in HEK T-REx cells. The format is cell-based. The protocol: Based on the findings described above, we wondered whether AC1903—which is typically used as a TRPC5 inhibitor at concentrations of 30–100 μM in cellular assays ([29], [56])—might have limited selectivity for TRPC5 channels and whether its effect on intracellular G418 levels and PTC readthrough might be the consequence of inhibition of other or multiple targets. All well-characterized TRPC channel inhibitors reported to date modulate multiple TRP(C) channels ([34], [35], [36]). […] Because limited data for the selectivity of AC1903 are available in the public domain, we decided to profile AC1903 against a selection of calcium-permeable cation channels by intracellular calcium ([Ca^2+]i) recordings using well-characterized cell lines and TRP channel activators ([46], [57], [58]), and the Ca^2+ indicator Fura-2. In these assays, cells (HEK 293, HEK T-REx, or CHO) overexpressing the relevant ion channel protein and loaded with Fura-2 AM (a cell-permeable precursor of Fura-2) were preincubated with various concentrations of AC1903 or vehicle (DMSO) for 30 min. Then, changes in ratiometric fluorescence (from background) were recorded upon addition of the respective ion channel activator.
HEK T-REx cells expressing tetracycline-inducible TRPC4, TRPC5, TRPC5–C1,TRPC4–C1, and hPiezo1 have been described previously ([46], [57], [59], [78]). […]

T1 sequence (Q92508 whole entry): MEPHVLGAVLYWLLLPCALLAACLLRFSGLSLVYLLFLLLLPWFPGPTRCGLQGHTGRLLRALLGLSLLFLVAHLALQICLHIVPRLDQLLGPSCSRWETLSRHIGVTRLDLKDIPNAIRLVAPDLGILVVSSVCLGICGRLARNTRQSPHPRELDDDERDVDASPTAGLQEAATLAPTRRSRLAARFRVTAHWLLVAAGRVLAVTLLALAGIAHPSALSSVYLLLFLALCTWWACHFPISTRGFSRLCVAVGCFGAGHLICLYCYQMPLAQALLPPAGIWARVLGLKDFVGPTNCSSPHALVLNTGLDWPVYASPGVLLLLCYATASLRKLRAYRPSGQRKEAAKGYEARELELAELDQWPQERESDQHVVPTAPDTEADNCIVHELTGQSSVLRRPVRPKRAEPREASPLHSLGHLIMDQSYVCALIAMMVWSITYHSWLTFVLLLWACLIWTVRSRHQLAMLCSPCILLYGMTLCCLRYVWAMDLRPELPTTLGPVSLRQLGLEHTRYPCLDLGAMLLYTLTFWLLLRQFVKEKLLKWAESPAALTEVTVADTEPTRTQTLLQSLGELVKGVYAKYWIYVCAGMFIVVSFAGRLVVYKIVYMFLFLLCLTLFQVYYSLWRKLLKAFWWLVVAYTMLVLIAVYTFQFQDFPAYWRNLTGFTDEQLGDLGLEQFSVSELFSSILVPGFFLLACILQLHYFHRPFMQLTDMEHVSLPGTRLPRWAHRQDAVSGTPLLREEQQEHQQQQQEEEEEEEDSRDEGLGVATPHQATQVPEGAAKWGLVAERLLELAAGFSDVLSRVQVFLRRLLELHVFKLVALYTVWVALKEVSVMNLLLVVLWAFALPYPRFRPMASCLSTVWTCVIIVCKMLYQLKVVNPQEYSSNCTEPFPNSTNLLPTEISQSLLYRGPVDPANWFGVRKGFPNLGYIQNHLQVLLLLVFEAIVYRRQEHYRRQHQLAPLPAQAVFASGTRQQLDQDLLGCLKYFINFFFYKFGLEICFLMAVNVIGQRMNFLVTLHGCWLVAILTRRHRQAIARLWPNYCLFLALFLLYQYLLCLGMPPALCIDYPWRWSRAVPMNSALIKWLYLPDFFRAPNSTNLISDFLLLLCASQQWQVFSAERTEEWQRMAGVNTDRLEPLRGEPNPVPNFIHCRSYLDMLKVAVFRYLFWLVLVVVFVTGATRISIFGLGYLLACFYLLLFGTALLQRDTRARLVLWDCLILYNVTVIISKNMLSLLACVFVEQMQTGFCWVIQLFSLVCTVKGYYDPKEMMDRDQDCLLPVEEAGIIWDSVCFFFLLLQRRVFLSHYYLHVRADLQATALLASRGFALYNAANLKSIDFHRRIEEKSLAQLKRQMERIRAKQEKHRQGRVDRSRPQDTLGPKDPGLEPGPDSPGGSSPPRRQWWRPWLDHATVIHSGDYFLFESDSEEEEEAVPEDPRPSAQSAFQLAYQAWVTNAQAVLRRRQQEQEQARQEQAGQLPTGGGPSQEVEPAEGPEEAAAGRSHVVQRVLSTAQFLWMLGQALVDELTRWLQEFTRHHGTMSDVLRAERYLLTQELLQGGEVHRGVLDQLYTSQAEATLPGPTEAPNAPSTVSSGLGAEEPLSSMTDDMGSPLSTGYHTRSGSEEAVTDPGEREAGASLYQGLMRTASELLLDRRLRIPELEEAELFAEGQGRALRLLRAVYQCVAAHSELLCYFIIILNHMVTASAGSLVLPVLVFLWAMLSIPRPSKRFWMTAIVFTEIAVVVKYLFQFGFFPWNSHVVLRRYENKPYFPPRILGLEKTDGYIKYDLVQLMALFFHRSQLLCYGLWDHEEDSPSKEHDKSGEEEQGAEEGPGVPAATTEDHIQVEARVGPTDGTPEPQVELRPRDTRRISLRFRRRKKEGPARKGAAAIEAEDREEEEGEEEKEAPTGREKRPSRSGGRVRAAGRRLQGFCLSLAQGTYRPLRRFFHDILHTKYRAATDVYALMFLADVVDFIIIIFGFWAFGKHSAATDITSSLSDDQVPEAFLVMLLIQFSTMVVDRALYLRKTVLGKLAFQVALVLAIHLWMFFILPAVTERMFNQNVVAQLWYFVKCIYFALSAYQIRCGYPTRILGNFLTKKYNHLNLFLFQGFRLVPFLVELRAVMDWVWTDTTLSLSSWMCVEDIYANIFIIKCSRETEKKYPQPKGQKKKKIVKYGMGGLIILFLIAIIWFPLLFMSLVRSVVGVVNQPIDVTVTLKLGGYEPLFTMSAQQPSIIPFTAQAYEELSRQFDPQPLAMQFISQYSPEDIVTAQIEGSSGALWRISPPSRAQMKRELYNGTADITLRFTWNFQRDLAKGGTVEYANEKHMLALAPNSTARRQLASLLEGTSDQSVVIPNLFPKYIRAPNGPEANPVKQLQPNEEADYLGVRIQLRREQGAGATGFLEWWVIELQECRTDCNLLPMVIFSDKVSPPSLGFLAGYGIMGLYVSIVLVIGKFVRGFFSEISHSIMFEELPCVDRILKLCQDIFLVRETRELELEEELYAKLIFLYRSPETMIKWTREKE

Regarding `c1ccc(Cn2c(NCc3ccco3)nc3ccccc32)cc1` [AC1903], where the note is “AC1903 up to 30 μM”, the “inhibition of Yoda1-activated Piezo1 channels” value was “does not affect; also recorded: did not inhibit”. Under “HEK T-REx, activator Yoda1 (3 μM)”, the concentration for half-maximal inhibition (IC50) was more than 100 µM.

The IC50 is the concentration that gives 50% inhibition. Higher therefore signals weaker potency in that assay.
